Assay results taken from ChEMBL document CHEMBL4004792, “Monascustin, an Unusual γ-Lactam from Red Yeast Rice” (J Nat Prod, 2017).
Activity calls are given as the source filed them. The calls are words filed in the database; no cut-off is given here.

Key:
A2780 = assay: Cytotoxicity against human A2780 cells at 10 uM after 24 hrs by MTT assay; format: functional, cell-based
BGC-823 = assay: Cytotoxicity against human BGC823 cells at 10 uM after 24 hrs by MTT assay; format: functional, cell-based
Peritoneal macrophage = assay: Inhibition of LPS-stimulated TNFalpha secretion in C57BL6J mouse peritoneal macrophages at 50 uM after 24 hrs; format: functional, cell-based
Bel-7402 = assay: Cytotoxicity against human Bel7402 cells at 10 uM after 24 hrs by MTT assay; format: functional, cell-based
A549 = assay: Cytotoxicity against human A549 cells at 10 uM after 24 hrs by MTT assay; format: functional, cell-based
Histone deacetylase 1 = Histone deacetylase 1 (Homo sapiens, UniProt Q13547); assay: Inhibition of human HDAC1 using H3(1-21)K9 after 60 mins by fluorescence assay
Sequence of Histone deacetylase 1 (Q13547 whole entry): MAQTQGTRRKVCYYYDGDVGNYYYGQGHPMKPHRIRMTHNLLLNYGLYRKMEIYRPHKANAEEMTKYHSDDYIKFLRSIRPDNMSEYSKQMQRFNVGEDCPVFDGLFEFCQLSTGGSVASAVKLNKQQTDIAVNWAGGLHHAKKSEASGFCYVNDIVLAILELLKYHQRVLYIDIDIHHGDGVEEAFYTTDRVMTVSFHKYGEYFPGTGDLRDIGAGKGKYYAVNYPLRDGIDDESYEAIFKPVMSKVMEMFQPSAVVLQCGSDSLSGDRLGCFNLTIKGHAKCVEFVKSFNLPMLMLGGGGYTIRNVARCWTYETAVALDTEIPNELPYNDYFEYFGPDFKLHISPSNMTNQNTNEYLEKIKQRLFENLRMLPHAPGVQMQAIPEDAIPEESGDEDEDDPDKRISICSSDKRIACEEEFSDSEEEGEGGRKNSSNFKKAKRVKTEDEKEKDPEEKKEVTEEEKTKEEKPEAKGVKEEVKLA

HCT-8 = assay: Cytotoxicity against human HCT8 cells at 10 uM after 24 hrs by MTT assay; format: functional, cell-based

IC50 (Histone deacetylase 1): 3.7 µM
SMILES: CC(C)C[C@@]1(C(N)=O)NC(=O)C[C@]1(C)O
Activity (A2780): inactive
Activity (BGC-823): inactive
inhibition (Peritoneal macrophage): inactive
Activity (Bel-7402): inactive
Activity (A549): inactive
Activity (HCT-8): inactive
